These results are taken from patent US20090170845A1, “USE OF IMIDAZO[2,1-b]-1,3,4-THIADIAZOLE-2-SULFONAMIDE COMPOUNDS TO TREAT NEUROPATHIC PAIN” (AEGERA THERAPEUTICS INC., priority 2006, published 2009).

Assay type in all cases: in vivo, rat
For experiment [1], the system named is Complete Freund's Adjuvant (CFA) model of hyperalgesia in rats. Kind of experiment: CFA-induced tactile hyperalgesia in rats. The settings on record: for activity in CFA model of hyperalgesia: subcutaneous and/or oral delivery. The text has this: Complete Freund's Adjuvant (CFA) was used to induce an inflammatory response, resulting in hyperalgesia. This model was chosen as a second experimental paradigm to obtain direct evidence for activity of the compounds against pain states because of its link with the induction of aberrant JNK phosphorylation, and evidence that this signaling cascade appears to, at least in part, mediate the pain response in this model (Doya et al., 2005).
Female Sprague Dawley rats were given either vehicle or Compound 150 (10 mg/kg, sc), 155 (1-10 mg/kg, sc), 157 (1-10 mg/kg, sc; 10-40 mg/kg, po) or 158 (10 mg/kg, sc) 6 hours prior to pain testing (compounds 150, 155, 157, and 158 were dissolved in 20% HPCD at 1-10 mg/mL). Compound 157 was also tested under conditions of repeat dosing where it was given at 5-20 mg/kg, po for five consecutive days. Under all treatment conditions, a single injection of CFA (50 uL) was given into the plantar surface of the right hind paw 1 hour prior to pain testing (i.e., 5 hours after the final administration of compound). Immediately after the CFA injection, animals were placed in testing chambers with a wire mesh bottom to habituate. Standard von Frey filaments were used to assess tactile response thresholds. The left, un-injected paw served as a control. Fibers were applied in the manner described by Dixon (1980) using the up-down method. The 50% withdrawal threshold (in grams) was determined for each paw.

Experiment [2] relates to diabetic rats. As to the kind of experiment: Tactile allodynia (von Frey) in diabetic rats (DN). Particulars: for established neuropathic pain state in diabetic rats: Study 2, 10 mg/kg sc for 14 consecutive days; for neuropathic pain in diabetic rats: subcutaneous and/or oral delivery routes. The protocol: The effects of compounds 150, 155, 157 and 158 on neuropathic pain responses characterized by tactile allodynia in diabetic rats were examined. A blinded reversal interventional paradigm was applied to evaluate the compounds, with therapy initiated when an aberrant pain state was clearly established. The effects of single or repeat (5 or two days per week) dosing regimen were assessed as described.
Rats (female Sprague Dawley; 250-270 g) were rendered diabetic with the commercially available agent streptozotocin and, were compared to vehicle-treated age matched controls, maintained for up to 6 weeks or more. Standard physiologic parameters (body weight and blood glucose) were recorded before, during and after the study to assess the metabolic status of animals.
Study 1: Both normal and diabetic groups were divided into two groups of 12 and received either vehicle or Compound 150 in 20% HPCD (10 mg/kg, sc) 5 days per week, for two weeks. Standard indices of sensory nerve function (tactile response threshold) were measured at baseline, prior to drug treatments, 48 hours after the 5th dose, and again prior to sacrifice (after the 10th dose) along with the standard physiologic parameters of body weight and plasma glucose.
Study 2: As per Study 1, except animals were treated with either compound 157 or 158 in 20% HPCD (10 mg/kg, sc) for 14 consecutive days.
Study 3: After 1 month of diabetes rats were treated subcutaneously with a single administration of 150, 155, 157, 154, 158 or 160 in 20% HPCD, as indicated; orally by gavage with a single administration of 157, or for 5 consecutive days by oral gavage with 157 and 158 to assess cumulative effects. The effect of the compounds was assessed 6 hours after the single or final administration.
Detailed methods for performing the behavioral tasks can be found in Journal of Neuroscience Methods (1994), 53: 55-63 and Methods in Molecular Medicine, Volume 99: Pain Research: methods and protocols, edited by Z. D. Luo, Humana Press Inc., Totowa, N.J.

In experiment [3] the test system is STZ treated diabetic rats. Kind of experiment: Sensory nerve conduction velocity (SNCV) in STZ diabetic rats, reversal paradigm, 2 months treatment. The source says:
(§1) The effects of Compound 150 on nerve conduction (both motor and sensory) and axonal atrophy were examined in diabetic rats. A blinded reversal interventional paradigm was applied to evaluate two related small molecules on established experimental rat diabetic peripheral neuropathy of 2 months duration given over a subsequent 2 months, specifically evaluating motor and sensory conduction and sural axon caliber.
(§2) Male Sprague-Dawley rats (200-300 g) raised on sawdust covered plastic cages in a room with normal light dark timing and fed with standard rat chow were used for this experiment. The protocol was reviewed and approved by the University of Calgary Animal Care Committee adhering to the guidelines of the Canadian Council on Animal Care (CCAC). Diabetes was induced by a single intraperitoneal injection of streptozotocin (STZ) in citrate buffer (65 mg/kg) with age-matched controls given the buffer without STZ. Animals were used for the study if fasting glucose levels 5-7 days later were ≧16.0 mmol/L (One Touch FasTake strips, Johnson and Johnson).
(§3) Treatments were applied after 2 months of hyperglycemia for a duration of 2 months. Motor conduction recordings (1-3) were made prior to intervention then after […]. Sensory conduction utilized the approach of Parry and Kozu involving stimulation of the digital branches of the sciatic nerve and recording from the sciatic nerve at the level of the popliteal fossa with near nerve temperature maintained at 37° C. (4).
(§4) For statistical analysis, we studied mean values with standard errors of the means and compared values in the interventional groups with one way ANOVA or repeated measures ANOVA and post hoc Student's t-tests.

In experiment [4] the test system is STZ treated diabetic rats. Kind of experiment: Sural nerve myelinated axon morphometry in STZ diabetic rats. Particulars: 5 of 7 days, 2 months of treatment. As for the experimental part: as §2
At endpoint (4 months of diabetes, 2 months of treatment) the rats were euthanized and sural nerves harvested for morphometric studies. Sural nerves were fixed in cacodylate buffered glutaraldehyde, dehydrated with alcohols, fixed in osmium tetroxide then embedded in epon to generate one micron sections, as in previous work (5,6). Sections were photographed under oil immersion (1000×) to sample the entire sural nerve. Images were analyzed using Scion image offline to measure axon area for 100 myelinated axons for each sural nerve fascicle. […] For sural nerves with more than one fascicle, each fascicle underwent separate analysis and a mean axon area was calculated for the rat from the fascicles. […]

The subject of experiment [5] is STZ treated diabetic rats. Kind of experiment: Motor nerve conduction velocity (MNCV) in STZ diabetic rats, reversal paradigm, 2 months treatment.
Text: as §1, §2, §3, §4

Setting [6] is: po, 5 d loading (5 consecutive days).
[7] abbreviates: po, 5 d loading (repeated dosing).
Setting [8] is: sc, acute single, 6 hours after administration.

For `CC(C)(C)c1ccc(-c2cn3nc(S(=O)(=O)[N-][Na+])sc3n2)cc1` [Compound 158], in experiment [1] (sc, acute single), the “CFA (effect on tactile hyperalgesia)” value is “attenuated CFA-induced tactile hyperalgesia and +ve”; the “CFA, effective dose” value is on record as not above 10 mg/kg. For the same molecule, the “activity in CFA model of hyperalgesia” value in experiment [1] is “active”. In addition, in experiment [2], the “established neuropathic pain state in diabetic rats” value was “reversed an established neuropathic pain state” and the “neuropathic pain in diabetic rats” value is recorded as “can reverse neuropathic pain”. For the same molecule, the “DN (effect on tactile allodynia in diabetic rats)” value in experiment [2] (setting [6]) is “equivalent efficacy was observed and +ve”. Also, in experiment [2] (setting [7]), the “DN, effective dose” value was 5 to 10 mg/kg. Besides, the “DN, effective dose” value in experiment [2] (sc, acute single) was not above 10 mg/kg. Further, the “DN (effect on tactile allodynia in diabetic rats)” value in experiment [2] (setting [8]) is “Effects of single administrations were observed and +ve”.

In the case of `O=S(=O)([N-][Na+])c1nn2cc(-c3ccc(Cl)c(Cl)c3Cl)nc2s1` [Compound 154], in experiment [2] (setting [8]), the “DN (effect on tactile allodynia in diabetic rats)” value was “Effects of single administrations were observed and +ve”. Moreover, the “neuropathic pain in diabetic rats” value in experiment [2] is “can reverse neuropathic pain”.

Take `O=S(=O)([N-][Na+])c1nn2cc(-c3ccc(-c4cccc(C(F)(F)F)c4)cc3)nc2s1` [Compound 150]: the “SNCV v vehicle treated diabetics at 2 months” value is given as “significantly better than vehicle treated diabetics” in experiment [3] (5 days/week) and “did not afford similar protection” in experiment [3] (twice per week). Moreover, the “SNCV change from baseline to 2 months (within diabetic groups)” value in experiment [3] (diabetic rats, 2 months of treatment) was “did not significantly change from baseline”. The “SNCV, diabetics v normals after 2 months of treatment” value was “did not confer similar protection” in experiment [3] (dosed 2 days per week) and “not significantly different from normals” in experiment [3] (dosed 5 days per week). The “CFA (effect on tactile hyperalgesia)” value in experiment [1] (sc, acute single) was “attenuated CFA-induced tactile hyperalgesia and +ve”. Moreover, the “activity in CFA model of hyperalgesia” value in experiment [1] is given as “active”. The “response to tactile stimulation with multiple dosing” value in experiment [2] (Study 1, diabetic rats, 10 mg/kg sc 5 days per week for two weeks) is listed as “consistently responding within the normal range”. In experiment [2] (Study 1, diabetic rats, 10 mg/kg sc in 20% HPCD), the “tactile allodynia six hours after the initial treatment” value is recorded as “tactile allodynia was reversed”. In addition, in experiment [2] (sc, acute single), the “DN, effective dose” value worked out at 10 mg/kg. Further, the “DN (effect on tactile allodynia in diabetic rats)” value in experiment [2] (setting [8]) is “Effects of single administrations were observed and +ve”. The “mean area of all measured sural myelinated axons, diabetics given compound vs. vehicle” value in experiment [4] was “rise in mean axonal area”. In experiment [4], the “mean axonal area of large (greater than 9 microns squared) myelinated axons, diabetics given compound vs. vehicle” value is recorded as “significant increase in mean axonal area”. Also, the “MNCV v vehicle treated diabetics at 2 months” value in experiment [5] (2×/week) and in experiment [5] (5 days per week) was “significantly better than vehicle treated diabetics” each time. The “MNCV change from baseline to 2 months (within diabetic groups)” value is reported as “identical effects as the drug given 5 days per week” in experiment [5] (2 days per week) and “significant improvement in MNCV” in experiment [5] (5 days per week). For the same molecule, the “MNCV, diabetics v normals” value in experiment [5] (2 days per week) and in experiment [5] (5 days per week) was “did not restore MNCV to normal” each time.

In the case of `O=S(=O)([N-][Na+])c1nn2cc(-c3cc(C(F)(F)F)ccc3Cl)nc2s1` [Compound 160], the “DN, effective dose” value in experiment [2] (sc, acute single) is reported as 10 mg/kg. The “DN (effect on tactile allodynia in diabetic rats)” value in experiment [2] (setting [8]) is “Effects of single administrations were observed and +ve”. For the same molecule, the “neuropathic pain in diabetic rats” value in experiment [2] is reported as “can reverse neuropathic pain”.

Consider `COCCOCCOc1ccc(-c2cn3nc(S(=O)(=O)[N-][Na+])sc3n2)cc1` [Compound 157], for which the “CFA (effect on tactile hyperalgesia)” value in experiment [1] (po, 5 d loading) was “+ve”; in experiment [1] (po, acute single), “efficacious and +ve”; in experiment [1] (sc, acute single), “attenuated CFA-induced tactile hyperalgesia and +ve”. The “CFA, effective dose” value in experiment [1] (po, 5 d loading) was in the range of 5 to 10 mg; in experiment [1] (po, acute single), 20 to 40 mg/kg. For the same molecule, the “CFA, required dose range” value in experiment [1] (po, daily dosing for 5 consecutive days) fell in the range of 5 to 10 mg/kg. The “activity in CFA model of hyperalgesia” value in experiment [1] is recorded as “active”. The “established neuropathic pain state in diabetic rats” value in experiment [2] is listed as “reversed an established neuropathic pain state”. The “duration of effect on pain after a single administration” value in experiment [2] (diabetic rats, single administration) was 24 h. Besides, the “DN, effective dose” value is 5 to 10 mg in experiment [2] (po, 5 d loading); 5 to 10 mg/kg in experiment [2] (setting [7]); 10 to 20 mg/kg in experiment [2] (po, acute single); less than 10 mg/kg in experiment [2] (sc, acute single). Besides, the “DN (effect on tactile allodynia in diabetic rats)” value in experiment [2] (setting [6]) was “equivalent efficacy was observed and +ve”; in experiment [2] (po, acute single, 6 hours after administration), “Effects of single administrations were observed and +ve”; in experiment [2] (setting [8]), “Effects of single administrations were observed”. For the same molecule, the “neuropathic pain in diabetic rats” value in experiment [2] is recorded as “can reverse neuropathic pain”.

For the molecule `O=S(=O)([N-][Na+])c1nn2cc(-c3ccc4c(c3)OCCCO4)nc2s1` [Compound 155], the “CFA (effect on tactile hyperalgesia)” value in experiment [1] (sc, acute single) was “attenuated CFA-induced tactile hyperalgesia and +ve”. Besides, the “activity in CFA model of hyperalgesia” value in experiment [1] was “active”. The “DN, effective dose” value in experiment [2] (sc, acute single) was not above 10 mg/kg. In addition, in experiment [2] (setting [8]), the “DN (effect on tactile allodynia in diabetic rats)” value was “Effects of single administrations were observed and +ve”. For the same molecule, the “neuropathic pain in diabetic rats” value in experiment [2] is “can reverse neuropathic pain”.
